Laboratory results reported in PubChem BioAssay (NCI).
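48-hour exposure; five concentrations; linearly interpolated endpoints. GI50 marks 50% less growth. TGI denotes the concentration required for complete inhibition of growth.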

How the values were obtained:
Test in all cases: growth of human tumour cells (NCI), 48 h
RXF 393 renal = tested on: RXF 393 renal
A549 NSCLC = tested on: A549 NSCLC
RPMI-8226 leukemia = tested on: RPMI-8226 leukemia
COLO 205 colon = tested on: COLO 205 colon
UO-31 renal = tested on: UO-31 renal
KM12 colon = tested on: KM12 colon
HCT-15 colon = tested on: HCT-15 colon
SK-OV-3 ovarian = tested on: SK-OV-3 ovarian
MCF7 breast = tested on: MCF7 breast
MDA-MB-435 = tested on: MDA-MB-435

SMILES | TGI (RXF 393 renal) [µM] | TGI (A549 NSCLC) [µM] | TGI (RPMI-8226 leukemia) [µM] | TGI (COLO 205 colon) [µM] | TGI (UO-31 renal) [µM] | TGI (KM12 colon) [µM] | TGI (HCT-15 colon) [µM] | TGI (SK-OV-3 ovarian) [µM] | TGI (MCF7 breast) [µM] | TGI (MDA-MB-435) [µM] | GI50 (RXF 393 renal) [µM] | GI50 (A549 NSCLC) [µM] | GI50 (RPMI-8226 leukemia) [µM] | GI50 (COLO 205 colon) [µM] | GI50 (UO-31 renal) [µM] | GI50 (KM12 colon) [µM] | GI50 (HCT-15 colon) [µM] | GI50 (SK-OV-3 ovarian) [µM] | GI50 (MCF7 breast) [µM] | GI50 (MDA-MB-435) [µM]
O=C(CC(=O)C1CCOC1=O)C(=O)Nc1cccc(Cl)c1 (configuration not stated) | > 100 | > 100 | > 100 | > 100 | > 100 | > 100 | > 100 | > 100 | – | – | – | – | – | – | – | – | – | – | – | –
Nc1c(-c2ccccc2-c2c(N)[n+]([O-])c3ccccc3[n+]2[O-])[n+]([O-])c2ccccc2[n+]1[O-] | > 100 | > 100 | 63.4 | 23.6 | > 100 | 50.2 | > 100 | > 100 | – | – | – | – | – | – | – | – | – | – | – | –
COc1cc(/C=C2\[C@H]3c4c(c(OC)c(C)c(OC)c4OC)CC(C(=O)N2Cc2ccccc2)N3C)c(OC)c(C)c1OC | > 100 | > 100 | 61.2 | 32.5 | 41.8 | > 100 | – | 92 | – | – | – | – | – | – | – | – | – | – | – | –
CC1CC(O)C(=O)C(O[C@@H]2C[C@@H]3CC[C@@H]4[C@H](CC[C@]5(C)C(C6=CC(=O)OC6)CC[C@]45O)[C@@]3(C=O)C[C@H]2O)O1 (some centres not stated) | 0.0506 | < 0.0199 | 0.246 | 0.491 | 0.22 | 0.44 | 0.0716 | 0.122 | 0.152 | 0.177 | – | – | – | – | – | – | – | – | – | –
CCOC(=O)NC(=O)c1cn(C(CC)COC(=O)NCCCCCCNC(=O)OCC(CC)n2cc(C(=O)NC(=O)OCC)c(=O)[nH]c2=O)c(=O)[nH]c1=O (configuration not stated) | > 100 | > 100 | > 100 | > 100 | > 100 | > 100 | > 100 | > 100 | – | – | – | – | – | – | – | – | – | – | – | –
COc1ccc(C(=O)c2cc(OC)c(OC)c(OC)c2)cc1OC | 6.3 | > 100 | > 100 | – | 39.4 | 28.9 | > 100 | – | > 100 | 1.89 | – | – | – | – | – | – | – | – | – | –
Nc1ccccc1C(=O)/C=C/c1c(O)ccc2ccccc12 | > 100 | > 100 | > 100 | > 100 | > 100 | > 100 | > 100 | > 100 | – | – | – | – | – | – | – | – | – | – | – | –
CC(C)CCC[C@@H](C)C1CCC2[C@@H]3CC=C4C[C@@H](C(=O)NCCN(C)C)CC[C@]4(C)C3CC[C@@]21C (some centres not stated) | > 100 | > 100 | 94 | 38.3 | 55.1 | 28.2 | 53.7 | > 100 | – | – | – | – | – | – | – | – | – | – | – | –
COc1c(C)n(CCO)ccc1=O | > 100 | > 100 | > 100 | > 100 | > 100 | > 100 | > 100 | > 100 | – | – | – | – | – | – | – | – | – | – | – | –
Nc1nc(-c2ccc(Cl)c([N+](=O)[O-])c2)cs1 | 90.1 | > 100 | > 100 | > 100 | > 100 | > 100 | > 100 | > 100 | – | – | – | – | – | – | – | – | – | – | – | –
Cc1ccc(C)c(N2C/C(=N\NC(=O)CC#N)C(c3nc4ccccc4s3)C(=O)C2=O)c1 (configuration not stated) | > 100 | > 100 | – | > 100 | > 100 | > 100 | > 100 | > 100 | – | – | – | – | – | – | – | – | – | – | – | –
CCC(C)(O)c1cnc(CC(C)C)c(=O)n1O (configuration not stated) | > 100 | > 100 | 28.5 | > 100 | > 100 | > 100 | > 100 | > 100 | – | > 100 | – | – | – | – | – | – | – | – | – | –
CC(C(=O)c1ccc(Cl)cc1)/C(=N/NC(=O)NN)C(=O)Nc1cccc(C(F)(F)F)c1 (configuration not stated) | > 100 | > 100 | > 100 | > 100 | > 100 | – | > 100 | > 100 | – | – | – | – | – | – | – | – | – | – | – | –
Cc1[nH]c2ccccc2c1C1Cc2ccccc2N1C(=O)C#Cc1ccc([N+](=O)[O-])cc1 (configuration not stated) | > 100 | > 100 | > 100 | – | > 100 | > 100 | – | > 100 | – | – | – | – | – | – | – | – | – | – | – | –
Cn1c(=O)nc2n(-c3cc(C(F)(F)F)cc(C(F)(F)F)c3)c3ccccc3nc-2c1=O | > 100 | > 100 | > 100 | > 100 | > 100 | > 100 | > 100 | > 100 | – | – | – | – | – | – | – | – | – | – | – | –
COC(=O)/C(=N/O)C(C(=O)C=C(C)C)C(=O)C(=O)Nc1nc2ccc([N+](=O)[O-])cc2s1 (configuration not stated) | – | > 100 | > 100 | > 100 | 92.8 | > 100 | > 100 | 63 | – | – | – | – | – | – | – | – | – | – | – | –
COC(=O)C(=O)C(C(C)=O)C(=O)NCc1ccc(OC)c(OC)c1 (configuration not stated) | > 100 | > 100 | – | > 100 | > 100 | > 100 | > 100 | > 100 | – | – | – | – | – | – | – | – | – | – | – | –
COc1cccc(/C=N/[N-]C(=O)c2ccncc2)c1[O-].COc1cccc(/C=N/[N-]C(=O)c2ccncc2)c1[O-].[O]=[U](=[O])([OH2+])[OH2+] | 25.3 | > 100 | 48 | > 100 | 20 | > 100 | > 100 | 73.2 | – | – | 6.11 | 27.9 | 4.4 | 4.09 | 3.45 | 36.3 | 4.77 | 12.2 | – | –
CCc1ccc2c(c1)C(=O)c1c-2n(CCCN=[N+]=[N-])c(=O)c2cc([N+](=O)[O-])ccc12 | > 50 | > 50 | > 50 | > 50 | > 50 | > 50 | > 50 | – | > 50 | > 50 | > 50 | > 50 | > 50 | > 50 | > 50 | > 50 | > 50 | – | > 50 | > 50
CCC1CN2CCc3cc(OC)c(OC)cc3C2CC1CC1c2cc(OC)c(OC)cc2CCN1C(=O)C1CCCN1 (configuration not stated) | 73.8 | 78.1 | > 100 | 25.7 | 47.4 | > 100 | > 100 | 98.5 | – | – | – | – | – | – | – | – | – | – | – | –
COc1ccc(-c2nn(-c3cccc(Cl)c3)cc2-c2cc(-c3ccccc3)[nH]c(=O)c2C#N)cc1 | 2.18 | > 50 | > 50 | > 50 | – | > 50 | > 50 | 2.29 | > 50 | > 50 | 0.897 | 2.26 | 45.6 | 7.4 | – | > 50 | 27 | 0.922 | 9.02 | > 50
